Experimental data as given in PMC10762035, “Molecular basis of human trace amine-associated receptor 1 activation” (Nature Communications, 2024).
Positions count from the first letter of the chain named. “And” between values parts separate entries of the source, which are not always exact repeats. Equal entries are not always repeated.

What was measured:
[1] = molecular target: T1, hTA1 R83H (Homo sapiens, UniProt Q96RJ0, R83H); test: GloSensor cAMP accumulation assay, R83H mutant; assay type: cell-based;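 further: cells transiently co-expressing hTA1 and a cAMP GloSensor, luminescence read 30 min after agonist addition at room temperature, concentration–response fitted by non-linear regression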
T1 construct: expressed in transfected cells; host or cells: HEK293T
T1 sequence (Q96RJ0 1-339 R83H): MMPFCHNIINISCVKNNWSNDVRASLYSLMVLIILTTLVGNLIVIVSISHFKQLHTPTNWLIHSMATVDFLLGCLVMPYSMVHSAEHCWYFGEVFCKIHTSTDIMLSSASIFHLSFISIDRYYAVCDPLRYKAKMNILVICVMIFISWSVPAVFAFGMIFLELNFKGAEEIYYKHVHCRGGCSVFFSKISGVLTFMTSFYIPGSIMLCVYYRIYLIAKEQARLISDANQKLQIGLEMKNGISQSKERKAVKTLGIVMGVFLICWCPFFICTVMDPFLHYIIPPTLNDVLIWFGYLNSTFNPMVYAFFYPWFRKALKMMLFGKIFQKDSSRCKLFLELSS

[2] = molecular target: T2, hTA1 V184P (Homo sapiens, UniProt Q96RJ0, V184P); test: GloSensor cAMP accumulation assay, V184P mutant; assay type: cell-based; conditions: for cAMP accumulation response, single replicate values (source data, Supplementary Figure 5): hTA1 V184P (N=2), log[Compound]
T2 construct: expressed in transfected cells; host or cells: HEK293T
T2 sequence (Q96RJ0 1-339 V184P): T1 sequence (Q96RJ0 1-339 R83H) with H83R, V184P

[3] = molecular target: T3, hTA1 C178S (Homo sapiens, UniProt Q96RJ0, C178S); test: GloSensor cAMP accumulation assay, C178S mutant; assay type: cell-based; conditions: for C178S - Normalized Luminescence Counts (N=2): log[Compound], single replicates
T3 construct: expressed in transfected cells; host or cells: HEK293T
T3 sequence (Q96RJ0 1-339 C178S): T1 sequence (Q96RJ0 1-339 R83H) with H83R, C178S

[4] = molecular target: T4, hTA1 T194A (Homo sapiens, UniProt Q96RJ0, T194A); test: GloSensor cAMP accumulation assay, T194A mutant
T4 sequence (Q96RJ0 1-339 T194A): T1 sequence (Q96RJ0 1-339 R83H) with H83R, T194A

[5] = molecular target: T5, hTA1 b2N (Homo sapiens, UniProt Q96RJ0); test: GloSensor cAMP accumulation assay, b2N construct; assay type: cell-based; conditions: b2N, n=2
T5 construct: read by me as the first 25 residues of β2AR (N); expressed in transfected cells; host or cells: HEK293T

[6] = C178S, each row one experiment (N=2), 3 replicates

T5 sequence (Q96RJ0 with tags, fused parts or gaps): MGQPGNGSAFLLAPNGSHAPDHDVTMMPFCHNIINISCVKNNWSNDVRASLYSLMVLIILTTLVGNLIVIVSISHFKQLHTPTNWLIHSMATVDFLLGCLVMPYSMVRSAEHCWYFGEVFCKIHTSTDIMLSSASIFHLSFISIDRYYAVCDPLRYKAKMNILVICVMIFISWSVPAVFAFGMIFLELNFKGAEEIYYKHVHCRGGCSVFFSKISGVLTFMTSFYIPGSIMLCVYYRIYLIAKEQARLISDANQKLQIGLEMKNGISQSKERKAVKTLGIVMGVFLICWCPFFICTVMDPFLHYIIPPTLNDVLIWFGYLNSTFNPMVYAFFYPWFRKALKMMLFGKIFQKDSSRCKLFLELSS

Cc1c(F)cccc1[C@H]1COC(N)=N1 [Ro5263397]
ΔEmax values (each mutant value - WT average) ([1]; R83H mutant minus WT average): -44.7513 | ΔpEC50 values (each mutant value - WT average) ([1]; R83H mutant minus WT average): -0.3934 and -0.2739 | pEC50 values, Mean ([1]; R83H mutant, each line an independent experiment, 3 replicates): 8.438 and 8.557 | Emax values, Mean ([1]; R83H mutant, β-PEA = 100, each line an independent experiment, 3 replicates): 41.952 and 25.7686 | Span ± SEM (Emax normalized to β-PEA) ([1]; R83H, n=2): 33.86 ± 8.09 | pEC50 ± SEM ([1]; R83H, n=2): 8.5 ± 0.15 | EC50 ([1]; R83H, n=2, read-out: EC50): 3.18 nM | Span ± SEM (Emax normalized to β-PEA) ([2]; V184P, n=2): 67.49 ± 4.18 | pEC50 ± SEM ([2]; V184P, n=2): 8.72 ± 0.1 | EC50 ([2]; V184P, n=2, read-out: EC50): 1.89 nM | cAMP accumulation response, single replicate values (source data, Supplementary Figure 5) ([2]; M = -5): 75.9826 and 54.4514 and 68.5146 and 68.2232 and 103.41 and 63.2018 | cAMP accumulation response, single replicate values (source data, Supplementary Figure 5) ([2]; M = -5.522): 60.8526 and 56.6821 and 51.6388 and 54.9916 and 88.8585 and 75.7736 | cAMP accumulation response, single replicate values (source data, Supplementary Figure 5) ([2]; M = -6): 62.1134 and 62.7923 and 57.749 and 52.2793 and 90.2146 and 61.0026 | cAMP accumulation response, single replicate values (source data, Supplementary Figure 5) ([2]; M = -6.522): 55.2273 and 58.8159 and 63.0833 and 59.17 and 90.5079 and 61.9556 | cAMP accumulation response, single replicate values (source data, Supplementary Figure 5) ([2]; M = -7): 76.2736 and 57.458 and 63.8592 and 78.4492 and 93.4034 and 75.9935 | cAMP accumulation response, single replicate values (source data, Supplementary Figure 5) ([2]; M = -7.522): 63.0833 and 60.2707 and 53.2876 and 78.6325 and 73.831 and 68.1499 | cAMP accumulation response, single replicate values (source data, Supplementary Figure 5) ([2]; M = -8): 45.7226 and 42.0371 and 33.6962 and 79.732 and 85.8896 and 81.3081 | cAMP accumulation response, single replicate values (source data, Supplementary Figure 5) ([2]; M = -8.522): 24.6764 and 22.5426 and 25.9372 and 54.0753 and 61.6257 and 60.123 | cAMP accumulation response, single replicate values (source data, Supplementary Figure 5) ([2]; M = -9): 15.8505 and 15.9475 and 14.9776 and 42.9696 and 48.944 and 40.6972 | cAMP accumulation response, single replicate values (source data, Supplementary Figure 5) ([2]; M = -9.522): 5.57 and 4.794 and 3.436 and 18.8157 and 20.0985 and 19.2188 | cAMP accumulation response, single replicate values (source data, Supplementary Figure 5) ([2]; M = -10): -0.05538 and 0.9145 and 0.6235 and 8.626 and 10.7888 and 9.213 | cAMP accumulation response, single replicate values (source data, Supplementary Figure 5) ([2]; M = -10.522): -0.8313 and -0.6373 and -1.025 and 2.3587 and 2.835 and 2.469 | cAMP accumulation response, single replicate values (source data, Supplementary Figure 5) ([2]; M = -11): -0.6373 and -0.7343 and -1.316 and 1.442 and 2.102 and 1.039 | cAMP accumulation response, single replicate values (source data, Supplementary Figure 5) ([2]; M = -11.522): -1.025 and -1.607 and -1.51 and 0.1962 and 0.9659 and -0.5735 | cAMP accumulation response, single replicate values (source data, Supplementary Figure 5) ([2]; M = -12): -0.9283 and -1.122 and -1.4132 and 19.5854 and 20.7216 (2×) | cAMP accumulation response, single replicate values (source data, Supplementary Figure 5) ([2]; M = -12.522): -1.316 and -1.219 and -0.9283 and 4.704 and 5.621 and 6.281 | pEC50 values, Mean ([2]; hTA1 V184P mutant, Figure 3B source data, each grid row a separate experiment, 3 replicates): 8.393 and 9.05 | Emax values, Mean ([2]; hTA1 V184P mutant, β-PEA set to 100, each grid row a separate experiment, 3 replicates): 63.3156 and 71.6719 | pEC50 values, Mean [3, 6]: 8.162 and 8.579 | ΔpEC50 values (each mutant value - WT average), Mean [3, 6]: -0.6693 and -0.2522 | Span ± SEM (Emax normalized to β-PEA) ([3]; C178S, n=2): 105.17 | pEC50 ± SEM ([3]; C178S, n=2): 8.37 ± 0.09 | EC50 ([3]; C178S, n=2, read-out: EC50): 4.26 nM | Emax ([3]; C178S, relative to β-PEA): 105.2% | Emax values, Mean ([3]; C178S, β-PEA = 100, each row one experiment (N=2), 3 replicates): 92.0056 and 118.332 | C178S - Normalized Luminescence Counts (N=2) ([3]; M = -5): 116.512 and 98.9884 and 102.82 and 110.453 and 111.171 and 57.8292 | C178S - Normalized Luminescence Counts (N=2) ([3]; M = -5.522): 90.6706 and 92.2127 and 73.4274 and 137.917 and 164.274 and 131.185 | C178S - Normalized Luminescence Counts (N=2) ([3]; M = -6): 100.344 and 93.0071 and 81.792 and 122.18 and 154.88 and 155.328 | C178S - Normalized Luminescence Counts (N=2) ([3]; M = -6.522): 92.3996 and 91.979 and 98.7081 and 121.313 and 114.761 and 110.333 | C178S - Normalized Luminescence Counts (N=2) ([3]; M = -7): 78.9882 and 76.0443 and 77.119 and 120.565 and 138.096 and 118.74 | C178S - Normalized Luminescence Counts (N=2) ([3]; M = -7.522): 86.6519 and 72.9134 and 81.9322 and 98.8752 and 109.017 and 95.5544 | C178S - Normalized Luminescence Counts (N=2) ([3]; M = -8): 48.9411 and 58.2403 and 50.0626 and 103.512 and 85.5323 and 112.428 | C178S - Normalized Luminescence Counts (N=2) ([3]; M = -8.522): 29.268 and 30.1559 and 35.3428 and 67.4924 and 67.6121 and 48.0464 | C178S - Normalized Luminescence Counts (N=2) ([3]; M = -9): 15.623 and 14.3146 and 15.5763 and 45.7428 and 46.9395 and 50.4398 | C178S - Normalized Luminescence Counts (N=2) ([3]; M = -9.522): 4.128 and 7.025 and 6.23 and 17.8303 and 18.7278 and 23.3949 | C178S - Normalized Luminescence Counts (N=2) ([3]; M = -10): 3.707 (2×) and 2.258 and 5.325 and 8.915 and 9.424 | C178S - Normalized Luminescence Counts (N=2) ([3]; M = -10.522): 1.885 and 0.4359 and 0.8097 and 2.513 and 2.752 and 5.684 | C178S - Normalized Luminescence Counts (N=2) ([3]; M = -11): 0.4826 and 1.043 and -0.5921 and 4.667 and 6.223 and 4.577 | C178S - Normalized Luminescence Counts (N=2) ([3]; M = -11.522): 0.9967 and 0.3892 and 0.01533 and 3.919 and 5.445 and 4.457 | C178S - Normalized Luminescence Counts (N=2) ([3]; M = -12): 2.258 and 1.511 (2×) and 2.7223 and 4.936 and 4.158 | C178S - Normalized Luminescence Counts (N=2) ([3]; M = -12.522): 0.1555 and 0.7163 and 0.9032 and 5.3849 and 3.7993 and 4.607 | ΔpEC50 values (each mutant value - WT average), Mean ([4]; T149A (so in the source) minus WT average): -1.583 and -1.53 and -1.429 | pEC50 values, Mean ([4]; T149A (so in the source), single experiments (3 replicates each)): 7.248 and 7.301 and 7.402 | Emax values, Mean ([4]; T149A (so in the source), single experiments (3 replicates each), β-PEA = 100): 143.384 and 86.8999 and 99.8921 | EC50 ([4]; T194A): 56.4 nM | Span ± SEM (Emax normalized to β-PEA) ([4]; T194A): 110.06 | pEC50 ± SEM ([4]; T194A): 7.32 ± 0.14 | reduction in potency vs wild type ([4]; T194A): over 30 fold | Span ± SEM (Emax normalized to β-PEA) [5]: 78.31 ± 9.88 | pEC50 ± SEM [5]: 9.18 ± 0.09 | EC50 ([5]; read-out: EC50): 0.66 nM
